Entries after “also recorded” stand apart in the source; their conditions may differ. Ends that are not written are not given here.
Legend:
in vitro = assay type: cell-based, murine; conditions: mouse
[1] = system: Raw264.7 macrophage cells; assay: in vitro; assay type: cell-based, murine; conditions: Example 1 results

| Compound | viability at 24 h, 20 μM (in vitro; Raw264.7 cell viability) | bioactivity / inhibitory activity relative to 7-mer (in words) [1] | viability at 24 h, 20 μM (in vitro; Rar264.7 cell viability) |
| --- | --- | --- | --- |
| CC(=O)N[C@@H](CC(=O)O)C(=O)N[C@@H](CC(C)C)C(=O)N[C@@H](Cc1ccc(O)cc1)C(=O)N[C@@H](CCCNC(=N)N)C(=O)N[C@H](C(=O)N[C@@H](CCC(N)=O)C(=O)N[C@@H](CO)C(N)=O)C(C)C [7-mer (R2→Q), NH2-Asp-Leu-Tyr-Arg-Val-Gln-Ser-COOH] | 68.4 ± 1.25% | could sustain 7-mer bioactivity, only partly | – |
| CC(=O)N[C@@H](CC(=O)O)C(=O)N[C@H](C(=O)N[C@@H](Cc1ccccc1)C(=O)N[C@@H](CCCNC(=N)N)C(=O)N[C@H](C(=O)N[C@@H](CCCNC(=N)N)C(=O)N[C@H](C(N)=O)[C@@H](C)O)C(C)C)C(C)C [7-mer VFT, NH2-Asp-Val-Phe-Arg-Val-Arg-Thr-COOH] | 71.1 ± 2.48% | could sustain 7-mer bioactivity, only partly; also recorded: relatively the same bioactivity that is similar to the 7-mer | – |
| CC(=O)N[C@@H](CC(=O)O)C(=O)N[C@@H](CC(C)C)C(=O)N[C@@H](Cc1ccc(O)cc1)C(=O)N[C@H](CCCNC(=N)N)C(=O)N[C@H](C(=O)N[C@@H](CCCNC(=N)N)C(=O)N[C@@H](CO)C(N)=O)C(C)C [7-mer DR, NH2-Asp-Leu-Tyr-(D-Arg)-Val-Arg-Ser-COOH] | – | lose its biological activity | 100 ± 2.58% |
| CC(=O)N[C@H](CC(=O)O)C(=O)N[C@@H](CC(C)C)C(=O)N[C@@H](Cc1ccc(O)cc1)C(=O)N[C@@H](CCCNC(=N)N)C(=O)N[C@H](C(=O)N[C@@H](CCCNC(=N)N)C(=O)N[C@@H](CO)C(N)=O)C(C)C [7-mer DD, NH2-(D-Asp)-Leu-Tyr-Arg-Val-Arg-Ser-COOH] | – | – | 52.1 ± 1.45% |
| CC(=O)N[C@@H](CC(=O)O)C(=O)N[C@@H](CC(C)C)C(=O)N[C@@H](Cc1ccc(O)cc1)C(=O)N[C@@H](CCCNC(=N)N)C(=O)N[C@H](C(=O)N[C@@H](CCCNC(=N)N)C(=O)N[C@@H](C)C(N)=O)C(C)C [7-mer Sa, NH2-Asp-Leu-Tyr-Arg-Val-Arg-Ala-COOH] | 93.1 ± 2.47% | – | – |
| CC(=O)N[C@@H](CC(=O)O)C(=O)N[C@@H](CC(C)C)C(=O)N[C@@H](Cc1ccc(O)cc1)C(=O)N[C@@H](CCCNC(=N)N)C(=O)N[C@H](C(=O)N[C@@H](C)C(=O)N[C@@H](CO)C(N)=O)C(C)C [7-mer R2a, NH2-Asp-Leu-Tyr-Arg-Val-Ala-Ser-COOH] | 94.6 ± 1.65% | – | – |
| CC(=O)N[C@@H](CC(=O)O)C(=O)N[C@@H](CC(C)C)C(=O)N[C@@H](Cc1ccc(O)cc1)C(=O)N[C@@H](CCCNC(=N)N)C(=O)N[C@@H](C(=O)N[C@@H](CCCNC(=N)N)C(=O)N[C@@H](CO)C(N)=O)C(C)C [7-mer DV, NH2-Asp-Leu-Tyr-Arg-(D-Val)-Arg-Ser-COOH] | – | – | 57.9 ± 6.2% |
| CC(=O)N[C@@H](CC(=O)O)C(=O)N[C@@H](CC(C)C)C(=O)N[C@@H](Cc1ccc(O)cc1)C(=O)N[C@@H](C)C(=O)N[C@H](C(=O)N[C@@H](CCCNC(=N)N)C(=O)N[C@@H](CO)C(N)=O)C(C)C [7-mer Ra, NH2-Asp-Leu-Tyr-Ala-Val-Arg-Ser-COOH] | 99.5 ± 1.51% | – | – |
| NH2-Asp-Leu-Tyr-Arg-Val-Arg-COOH (DLYRVR; not fully specified (N-terminus, C-terminus); printed as NH2-Asp-Leu-Tyr-Arg-Val-Arg-COOH) [control peptide, serine residue of the 7-mer deleted, reference compound] | – | does not possess any biological function | – |
| CC(=O)N[C@@H](CC(=O)O)C(=O)N[C@@H](CC(C)C)C(=O)N[C@@H](C)C(=O)N[C@@H](CCCNC(=N)N)C(=O)N[C@H](C(=O)N[C@@H](CCCNC(=N)N)C(=O)N[C@@H](CO)C(N)=O)C(C)C [7-mer Ya, NH2-Asp-Leu-Ala-Arg-Val-Arg-Ser-COOH] | 97.6 ± 0.56% | – | – |
| CC(=O)N[C@@H](CC(=O)O)C(=O)N[C@@H](CC(C)C)C(=O)N[C@@H](Cc1ccc(O)cc1)C(=O)N[C@@H](CCCNC(=N)N)C(=O)N[C@@H](C)C(=O)N[C@@H](CCCNC(=N)N)C(=O)N[C@@H](CO)C(N)=O [7-mer Va, NH2-Asp-Leu-Tyr-Arg-Ala-Arg-Ser-COOH] | 97.7 ± 0.6% | – | – |

— patent US10463710B2, “Short synthetic peptide for the treatment and/or prophylaxis of autoimmune and inflammatory disorders” (MacKay Memorial Hospital, priority 2015, dated 2019)
